Results reported in PMC6094047 (Antiviral Research, 2018).
Where “and” joins values, the source holds several entries; their conditions need not be identical. Equal values may be shown once. Read-outs that look alike come from different tables or passages of the source.

Legend:
[1] = system: A(H3N2) virus neuraminidase (NA); assay type: biochemical, influenza A(H3N2) virus
[2] = system: B/Victoria-lineage virus neuraminidase (NA); assay type: biochemical, influenza B/Victoria-lineage virus
[3] = system: A(H1N1)pdm09 virus neuraminidase (NA); conditions: cited from earlier work; for fold increases in IC50s compared to the mean IC50s: previously described A(H1N1)pdm09 virus with S110F AAS, ref Okomo-Adhiambo et al., 2014
[4] = system: A(H1N1)pdm09 virus neuraminidase (NA); assay type: biochemical, influenza A(H1N1)pdm09 virus
[5] = A(H1N1)pdm09 NA H275Y, ref WHO-AVWG NAI substitution table

| SMILES | Fold change in IC50 [1] | inhibition phenotype (NI/RI/HRI) [1] | Fold change in IC50 [2] | fold increases in IC50s compared to the mean IC50s [3] | inhibition phenotype associated with NA AAS (NI/RI/HRI) [3, 5] | inhibition phenotype associated with NA AAS (NI/RI/HRI) [3] | IC50 fold-change compared to reference median IC50 values [4] |
| --- | --- | --- | --- | --- | --- | --- | --- |
| CC(=O)N[C@H]1[C@H]([C@H](O)[C@H](O)CO)OC(C(=O)O)=C[C@@H]1N=C(N)N [Zanamivir] | 11 fold and 8.1 fold and 9.1 fold | RI (key: normal inhibition (NI) (type A viruses <10-fold; reduced inhibition (RI) (type A viruses 10- to 100-fold; highly reduced inhibition (HRI) (type A viruses >100-fold) | 1.4 fold and 2.0 fold | 3–6 fold |  |  |  |
| CCOC(=O)C1=C[C@@H](OC(CC)CC)[C@H](NC(C)=O)[C@@H](N)C1 [Oseltamivir] | 14 fold | RI (key: normal inhibition (NI) (type A viruses <10-fold; reduced inhibition (RI) (type A viruses 10- to 100-fold; highly reduced inhibition (HRI) (type A viruses >100-fold) | 4.1 fold and 2.9 fold | 3–6 fold | HRI (highly reduced inhibition (HRI) (type A viruses >100-fold) | HRI (key: normal inhibition (NI) (type A viruses <10-fold; reduced inhibition (RI) (type A viruses 10- to 100-fold; highly reduced inhibition (HRI) (type A viruses >100-fold) |  |
| [H]/N=C(\N)N[C@H]1C=C(C(=O)O)O[C@@H]([C@H](OC)[C@H](O)CO)[C@@H]1NC(C)=O [Laninamivir] |  |  | 1.8 fold and 2.2 fold |  |  | HRI (key: normal inhibition (NI) (type A viruses <10-fold; reduced inhibition (RI) (type A viruses 10- to 100-fold; highly reduced inhibition (HRI) (type A viruses >100-fold) | 1.5–3.4 (8) fold and 2.9 fold |
| CCC(CC)[C@H](NC(C)=O)[C@@H]1[C@H](O)[C@@H](C(=O)O)C[C@H]1N=C(N)N [Peramivir] |  |  | 30 fold and 26 fold |  | HRI (highly reduced inhibition (HRI) (type A viruses >100-fold) |  |  |
